As a reminder, the IC50 is the midpoint of a concentration-inhibition curve.

Where a name gives a salt, the structure may show the parent alone.

Our source for the IC50 and Kb values is patent US20190152992A1, “BENZODIOXANE DERIVATIVES AND THEIR PHARMACEUTICAL USE” (Orion Corporation, priority 2016, published 2019).

For test [1], the target named is T1, human alpha2A receptors (Homo sapiens, UniProt P08913).
T1 sequence (P08913 1-465): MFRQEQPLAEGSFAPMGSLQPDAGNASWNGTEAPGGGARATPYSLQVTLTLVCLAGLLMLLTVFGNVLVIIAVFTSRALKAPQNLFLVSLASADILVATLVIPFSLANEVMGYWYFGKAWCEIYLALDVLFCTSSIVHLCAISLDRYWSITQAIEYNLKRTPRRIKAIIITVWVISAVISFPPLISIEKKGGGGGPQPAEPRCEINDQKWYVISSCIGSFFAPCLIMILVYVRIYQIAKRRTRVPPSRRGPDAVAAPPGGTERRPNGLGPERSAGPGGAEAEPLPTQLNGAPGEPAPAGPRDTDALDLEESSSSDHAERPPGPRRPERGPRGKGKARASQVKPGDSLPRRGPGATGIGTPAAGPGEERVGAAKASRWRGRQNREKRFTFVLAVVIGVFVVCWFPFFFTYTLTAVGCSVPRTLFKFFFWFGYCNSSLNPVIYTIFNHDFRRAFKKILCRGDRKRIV
The experiment in a line: cell-based.

Test [2] concerns the target T2, human alpha2C receptors (Homo sapiens, UniProt P18825).
T2 sequence (P18825 1-462): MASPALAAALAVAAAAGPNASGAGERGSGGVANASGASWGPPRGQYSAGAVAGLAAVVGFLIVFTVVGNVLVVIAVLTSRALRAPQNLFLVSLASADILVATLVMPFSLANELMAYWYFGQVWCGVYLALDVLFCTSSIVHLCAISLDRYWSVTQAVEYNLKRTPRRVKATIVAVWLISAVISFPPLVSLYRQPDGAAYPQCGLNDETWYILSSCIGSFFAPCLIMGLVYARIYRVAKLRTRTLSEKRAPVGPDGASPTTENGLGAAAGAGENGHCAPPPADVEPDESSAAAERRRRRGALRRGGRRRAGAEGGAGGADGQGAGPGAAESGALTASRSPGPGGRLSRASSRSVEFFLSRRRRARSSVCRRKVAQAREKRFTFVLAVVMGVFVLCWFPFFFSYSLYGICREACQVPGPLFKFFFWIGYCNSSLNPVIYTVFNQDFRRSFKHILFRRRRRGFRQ
The experiment in a line: Determination of alpha2C antagonistic activity in vitro (FLIPR calcium assay). The conditions noted are these: for Kb: Alpha 2C Adrenaline Kb, Kb calculated from IC50 with the Cheng-Prusoff equation, adrenaline as agonist, CHO cells, human alpha2C.
Method: Experiment 1: Determination of alpha2A and alpha2C Antagonistic Activity In Vitro
The growth medium was removed and the cells were incubated with the test compounds and the FLIPR Calcium 6 Assay reagent (Molecular Devices, CA, USA) for 2 h at 37° C. in dark. The test compounds (concentrations in cells 100 pM-10 μM) were dissolved in Probenecid-Ringer consisting of 150 mM NaCl, 3 mM KCl, 1.2 mM MgCl2, 1 mM CaCl2, 5 mM glucose, 20 mM HEPES and 2.5 mM probenecid (pH 7.4 adjusted with 1.0 M NaOH). […] All experiments were performed at 37° C. For agonism measurements the test compounds dissolved in Probenecid-Ringer were applied by FLIPR Tetra at 15 s time point. In order to determine antagonism, the cells were stimulated either with 100 nM adrenaline or noradrenaline and the test compounds were added to the cells 2 h before the experiment with the FLIPR Calcium 6 Assay reagent. […] Typically, there were four replicates at each concentration and six different dose levels. […] The minimum fluorescence value subtracted from the maximum value for each well was used in the calculations. ScreenWorks version 4.0 software was used for analyzing the results. Fitting of the antagonist dose-response results was performed with the free Hill equation and the IC50 values were fitted with IDBS XE software using model 200: y=(A+(B/(1+((x/C)̂D)))), where A is the curve maximum, B the curve minimum and C equals the EC50 value. D is slope factor (Hill). Kb was calculated with the Cheng-Prusoff equation Kb=A/((B/C)+1), where A is the IC50 of antagonist, B the concentration of agonist and C the EC50 of the agonist.

In the case of `CC(C)N1C(=O)N([C@H]2CCCN(C[C@H]3COc4ccccc4O3)C2)C[C@H]1c1ccccc1` [example 6, (R)-1-((S)-1-(((S)-2,3-Dihydrobenzo[b][1,4]dioxin-2-yl)methyl)-piperidin-3-yl)-3-isopropyl-4-phenylimidazolidin-2-one], in test [1], it took 9870 nM to reach half-maximal inhibition (IC50) and the Kb turned out to be 443 nM. In addition, in test [2], the IC50 came out at 672 nM and the Kb was 67.7 nM.
In test [1], `C[C@@H](c1ccccc1)N1C(=O)C(=O)N([C@H]2CCCN(C[C@H]3COc4ccccc4O3)C2)C1=O` [compound 133, 1-((S)-1-(((S)-2,3-Dihydrobenzo[b][1,4]dioxin-2-yl)methyl)-piperidin-3-yl)-3-((S)-1-phenylethyl)imidazolidine-2,4,5-trione] showed an IC50 of 807 nM and a Kb of 36 nM. In test [2], the IC50 is < 0.01 nM and the Kb is < 0.001 nM.
For `CN1C(=O)N([C@H]2CCCN(C[C@H]3COc4ccccc4O3)C2)C(=O)C12CC2` [example 123, 6-((S)-1-(((S)-2,3-Dihydrobenzo[b][1,4]dioxin-2-yl)methyl)-piperidin-3-yl)-4-methyl-4,6-diazaspiro[2.4]heptane-5,7-dione], in that order: > 10000 nM, > 449 nM, 3.52 nM and 0.354 nM.
Take `O=C1c2cccc(F)c2CN1[C@H]1CCCN(C[C@H]2COc3ccccc3O2)C1` [example 57, 2-((S)-1-(((S)-2,3-Dihydrobenzo[b][1,4]dioxin-2-yl)methyl)piperidin-3-yl)-4-fluoroisoindolin-1-one hydrochloride]: in test [1], the IC50 is > 10000 nM and the Kb was > 449 nM. Moreover, in test [2], the IC50 was found to be 1.54 nM and the Kb is 0.15 nM.
As for `O=C1C2C3C=CC(C3)C2C(=O)N1[C@H]1CCCN(C[C@H]2COc3ccccc3O2)C1` (stereo partly drawn) [example 34, 2-((S)-1-(((S)-2,3-Dihydrobenzo[b][1,4]dioxin-2-yl)methyl)piperidin-3-yl)-3a,4,7,7a-tetrahydro-1H-4,7-methanoisoindole-1,3(2H)-dione], in test [1], the IC50 worked out at 6860 nM and the Kb is 308 nM. In test [2], the IC50 is 0.02 nM and the Kb was 0.002 nM.
Regarding `CC(C)CN1C(=O)C(=O)N([C@H]2CCCN(C[C@H]3COc4ccccc4O3)C2)C1=O` [example 141, 1-((S)-1-(((S)-2,3-Dihydrobenzo[b][1,4]dioxin-2-yl)methyl)piperidin-3-yl)-3-isobutylimidazolidine-2,4,5-trione], in test [1], the IC50 was > 10000 nM and the Kb is > 449 nM. Further, in test [2], the half-maximal inhibitory concentration (IC50) was found to be 0.446 nM and the Kb is 0.045 nM.
Taken in the same sequence, the figures for `CC(C)N1CC(=O)N([C@H]2CCCN(C[C@H]3COc4ccccc4O3)C2)C1=O` [example 104, 3-((S)-1-(((S)-2,3-Dihydrobenzo[b][1,4]dioxin-2-yl)methyl)piperidin-3-yl)-1-isopropylimidazolidine-2,4-dione] were > 10000 nM, > 449 nM, 10 nM and 1.01 nM.
Consider `Fc1ccc2ncn([C@H]3CCCN(C[C@H]4COc5ccccc5O4)C3)c2c1` [example 82, 1-((S)-1-(((S)-2,3-Dihydrobenzo[b][1,4]dioxin-2-yl)methyl)piperidin-3-yl)-6-fluoro-1H-benzo[d]imidazole], for which the results for the IC50 in test [1] and in test [2] were > 10000 nM and < 0.1 nM, respectively. The figures for the Kb in test [1] and in test [2] were > 449 nM and < 0.01 nM, respectively.
Regarding `C[C@H]1C(=O)N([C@H]2CCCN(C[C@H]3COc4ccccc4O3)C2)C(=O)[C@@H]1C` [example 4, (3R,4R)-1-((S)-1-(((S)-2,3-Dihydrobenzo[b][1,4]dioxin-2-yl)methyl)piperidin-3-yl)-3,4-dimethylpyrrolidine-2,5-dione], in test [1], the IC50 is > 10000 nM and the Kb was > 449 nM. In test [2], the IC50 was found to be 1.77 nM and the Kb is 0.18 nM.
In the case of `O=S1(=O)Nc2ccccc2N1[C@H]1CCCN(C[C@H]2COc3ccccc3O2)C1` [example 146, 1-((S)-1-(((S)-2,3-Dihydrobenzo[b][1,4]dioxin-2-yl)methyl)piperidin-3-yl)-1,3-dihydrobenzo[c][1,2,5]thiadiazole 2,2-dioxide], in test [1], inhibition was half-maximal at 7190 nM (IC50) and the Kb worked out at 323 nM. Moreover, in test [2], the IC50 came to 1050 nM and the Kb was 105 nM.
For `O=c1[nH]c2c(F)cccc2n1[C@H]1CCCN(C[C@H]2COc3ccccc3O2)C1` [example 154, 1-((S)-1-(((S)-2,3-Dihydrobenzo[b][1,4]dioxin-2-yl)methyl)piperidin-3-yl)-4-fluoro-1H-benzo[d]imidazol-2(3H)-one], in that order: > 10000 nM, > 449 nM, < 0.1 nM and < 0.01 nM.
As to `CC(C)CN1CC(=O)N([C@H]2CCCN(C[C@H]3COc4ccccc4O3)C2)C1=O` [example 107, 3-((S)-1-(((S)-2,3-Dihydrobenzo[b][1,4]dioxin-2-yl)methyl)piperidin-3-yl)-1-isobutylimidazolidine-2,4-dione], in test [1], the IC50 was > 10000 nM and the Kb is > 449 nM. In test [2], the IC50 turned out to be 0.284 nM and the Kb is 0.029 nM.
For the molecule `CN1CCCN([C@H]2CCCN(C[C@H]3COc4ccccc4O3)C2)C1=O` [example 54, 1-((S)-1-(((S)-2,3-Dihydrobenzo[b][1,4]dioxin-2-yl)methyl)piperidin-3-yl)-3-methyltetrahydropyrimidin-2(1H)-one], in test [1], the IC50 was > 10000 nM and the Kb is > 449 nM. In test [2], the IC50 is 4.95 nM and the Kb was 0.5 nM.
As for `CC1(C)CCN([C@H]2CCCN(C[C@H]3COc4ccccc4O3)C2)C1=O` [example 100, 1-((S)-1-(((S)-2,3-Dihydrobenzo[b][1,4]dioxin-2-yl)methyl)piperidin-3-yl)-3,3-dimethylpyrrolidin-2-one], in test [1], the IC50 was > 10000 nM and the Kb is > 449 nM. In test [2], the IC50 was 2.02 nM and the Kb was 0.203 nM.
For `CC1=C(c2ccccc2)C(=O)N([C@H]2CCCN(C[C@H]3COc4ccccc4O3)C2)C1` [example 42, 1-((S)-1-(((S)-2,3-Dihydrobenzo[b][1,4]dioxin-2-yl)methyl)piperidin-3-yl)-4-methyl-3-phenyl-1H-pyrrol-2(5H)-one], in that order: > 10000 nM, > 449 nM, 331 nM and 33.3 nM.
Taken in the same sequence, the figures for `CC(C)(C)N1CC(=O)N([C@H]2CCCN(C[C@H]3COc4ccccc4O3)C2)C1=O` [example 117, 1-tert-Butyl-3-((S)-1-(((S)-2,3-dihydrobenzo[b][1,4]dioxin-2-yl)methyl)piperidin-3-yl)imidazolidine-2,4-dione] were > 10000 nM, > 449 nM, 1.99 nM and 0.202 nM.
Taken in the same sequence, the figures for `CCC1(c2ccccc2)C(=O)N([C@H]2CCCN(C[C@H]3COc4ccccc4O3)C2)C(=O)N1C` (stereo partly drawn) [example 73, 3-((S)-1-(((S)-2,3-Dihydrobenzo[b][1,4]dioxin-2-yl)methyl)-piperidin-3-yl)-5-ethyl-1-methyl-5-phenylimidazolidine-2,4-dione] were 185 nM, 8 nM, < 0.1 nM and < 0.01 nM.
Consider `O=S1(=O)c2ccccc2CN1[C@H]1CCCN(C[C@H]2COc3ccccc3O2)C1` [example 81, 2-((S)-1-(((S)-2,3-Dihydrobenzo[b][1,4]dioxin-2-yl)methyl)piperidin-3-yl)-2,3-dihydrobenzo[d]isothiazole 1,1-dioxide], for which the values for the IC50 in test [1] and in test [2] were > 10000 nM and 653 nM, respectively. The Kb in test [1] was > 449 nM; in test [2], 65.7 nM.
Taken in the same sequence, the figures for `O=C1CN(C2COC2)C(=O)N1[C@H]1CCCN(C[C@H]2COc3ccccc3O2)C1` [example 120, 3-((S)-1-(((S)-2,3-Dihydrobenzo[b][1,4]dioxin-2-yl)methyl)-piperidin-3-yl)-1-(oxetan-3-yl)imidazolidine-2,4-dione] were > 10000 nM, 132 nM, > 449 nM and 13.3 nM.
Taken in the same sequence, the figures for `CCCN1C(=O)C(=O)N([C@H]2CCCN(C[C@H]3COc4ccccc4O3)C2)C1=O` [example 132, 1-((S)-1-(((S)-2,3-Dihydrobenzo[b][1,4]dioxin-2-yl)methyl)-piperidin-3-yl)-3-propylimidazolidine-2,4,5-trione] were > 10000 nM, 0.308 nM, > 449 nM and 0.031 nM.
